# Article PMC6957531, “A butanolic fraction from the standardized stem extract of Cassia occidentalis L delivered by a self-emulsifying drug delivery system protects rats from glucocorticoid-induced osteopenia and muscle atrophy” (Scientific Reports, 2020)
# Legend:
# in vivo = conditions: rat; for AUC / Cmax / increase of relative bioavailability by CSE-BuF compared to CSE-Bu / %Fr (relative bioavailability): male, Sprague Dawley; for AUC / Cmax / %Fr (relative bioavailability): 250 mg/kg
# Protocol: All analytes were analyzed using API-QTRAP 4000 mass spectrometer (ABSciex, Canada) equipped with electrospray ionization (ESI) source in negative ion ([M-H]^−) mode [apigenin, isovitexin, emodin, luteolin, 3′,4′,7-trihydroxyflavone (THF), and fenofibric acid (FFA)] and quantified using Analyst 1.6 software (Applied Biosystems, MDS Sciex Toronto, Canada). Quantification was performed by multi-reaction monitoring (MRM), by monitoring the parent ion to product ion transition of 269.3/116.9 for apigenin, 431.2/311 for isovitexin, 269.1/224.9 for emodin, 284.9/133 for luteolin, 268.9/132.8 for THF, 316.9/230.9 for FFA (IS for apigenin, isovitexin, emodin, luteolin, and THF). Compound parameters, viz. declustering potential (V), entrance potential (V), collision energy, collision exit potential were −76, −10, −49, and −5 for apigenin; −100, −10, −20 and −15 for isovitexin; −100, −10, −40, and −10 for emodin; −100, −10, −50, and −20 for luteolin; −100, −10, −40, and −10 for THF; −55, −10, −12 and −10 for FFA; respectively. Source parameters, viz. curtain gas (psi), collision gas, ionspray voltage (V), ion source temperature (°C), nebulizer gas (GS1, psi) and turbo ion gas (GS2, psi) for apigenin, isovitexin, emodin, luteolin, THF, and FFA were 30, high, −4500, 500, 50, 50 respectively.
# Shimadzu UFLC system (Kyoto, Japan) equipped with a binary pump (LC-20AD), a degasser (DGU-20A3), an autosampler (SIL-HTc) and a column oven (CTO-20AC) was used to inject the samples. The chromatographic separation of apigenin, isovitexin, emodin, luteolin, THF and FFA were performed on Phenomenex Luna (C18 (2), 100A, 150 × 4.6 mm, 3 μ) column with a mobile phase consisting of methanol: 10 mM ammonium acetate, 95:05 (v/v) at 0.6 mL/min flow rate. The temperature of the column oven was set at 40 °C during analysis. 10 µL samples were injected for quantification.
# For extraction of apigenin, isovitexin, emodin, luteolin, THF, liquid-liquid extraction (LLE) method was applied for processing rat plasma. Plasma (100 µL) was incubated with 50 µL β-glucuronidase enzyme (2 mg/mL in 100 mM ammonium acetate buffer pH 5), and 50 µL ammonium acetate buffer (100 mM, pH 5) for 2 h at 37°C on water shaking bath. 200 µL ACN containing IS (FFA, 100 ng/mL) was added to plasma, vortex for 15 sec, and then 100 µL 0.1% formic acid (in 10 mM ammonium formate) was added. After vortexing for 5 min on vortexer (IKA^(R) VIBRAX VXR basic) at 1200 rpm, 2 mL ethyl acetate was added. The mixture was again vortexed for 10 min and then centrifuged at 10000 rpm for 5 min. The supernatant (1.5 mL) was transferred into Ria vial and completely dried in a TurboVap. The dried residue was reconstituted with 100 µL of mobile phase and analyzed by LC-MS/MS[44].
# For determination of osteogenic compounds in the plasma of rats given CSE-Bu and CSE-BuF, we recruited male Sprague Dawley (SD) rats (220 ± 20 g) and were fasted overnight with free access to water. Rats were divided into 2 groups consisting of 6/group. One group received CSE-Bu (250 mg/kg/oral) and the other received CSE-BuF (250 mg/kg/oral). Blood (300 µL) was collected into 0.5 ml centrifuged tube containing EDTA at 0.25, 0.5, 1, 2, 4, 8, 12, 24, and 48 h and plasma was separated followed by centrifugation at 10000 rpm for 10 min and stored at -80 °C for further analysis. For pharmacokinetic analysis, plasma concentration versus time was plotted and analyzed by non-compartmental analysis method using WinNonlin (Pharsight, Mountain View, CA) software.
# [1] = set-up: method as in PMID 30703497; conditions: cited from earlier work
# bone = conditions: cited from earlier work
# [2] = type: in vivo
# Protocol: (§1) All treatments lasted for 4 weeks.
# Body composition of live rats was analyzed using an Echo-MRI Body Composition Analyzer E26-226-RM (EchoMRI LLC, USA) as per our previously described method[14],[47]–[50].
# [3] = test system: atrogin 1 and MuRF1 in gastrocnemius muscle; test: GIO model: immunoblotting of muscle atrogenes; set-up: species or system male SD rats; conditions: rat, in vivo
# Protocol: as §1
# Gastrocnemius muscle samples were collected from each group and protein lysates were prepared to determine the levels of muscle atrogenes [atrogin 1], and muscle ring finger protein (MuRF1). Relative expression of these proteins was detected by immunoblot analysis using specific antibodies againts atrogin 1 (Abcam; 1:1000 dilution), MuRF1 (Santa Cruz Biotechnology; 1:1000 dilution), and GAPDH (Merck Millipore; 1:1000 dilution). Densitometric analyses of immunoblots were performed using ImageJ software.
# [4] = test system: GILZ mRNA in thymus and bone; serum IL-1β; test: Evaluation of the anti-inflammatory response (GILZ mRNA, serum IL-1β); set-up: species or system male SD rats; conditions: rat, in vivo
# Protocol: (§2) The serum samples were collected from blood by centrifugation at 3000 rpm. Serum cross-linked C-telopeptide of Type I collagen (CTX-I), procollagen type I N-terminal propeptide (PINP), sclerostin (SOST), interleukin 1 beta (IL-1β) levels were determined by ELISA (MyBioSource, USA) following the manufacturer’s protocols.
# Primer sequences are listed below:
# Serum IL-1β level were measured to evaluate the effect of CSE-BuF on glucocorticoid-mediated anti-inflammatory response.
# miR-29a, miR-17, miR-20a = test: GIO model: miRNA expression in bones (TaqMan assay); set-up: species or system male SD rats; conditions: rat, in vivo
# From the text: as §1
# TaqMan assay (Thermo Fisher Scientific, USA) was used to determine miRNA expression in bones. Specific assay was designed based on published sequence using Thermo Fisher miRNA assay design tool. Assay ID of different miRNA was; hsa-miR-29a (OO2112), hsa-miR-17 (OO2308), hsa-miR-20a (OOO580) and U6 snRNA (OO1973)[54].
# [5] = test system: OCN, TRAP, DMP-1, MEPE, RANKL mRNA in bones; test: GIO model: osteoblast-, osteoclast- and osteocyte-specific genes in bones by qPCR; conditions: rat, in vivo
# [6] = test system: L5 vertebra and femur diaphysis; test: GIO model: bone strength (L5 compression, femur 3-point bending); type: in vivo, male SD rats
# Protocol: as §1
# Bone mechanical strength was measured by three-point bending test for femur diaphysis and compression test for L5 vertebrae using a bone strength tester TK 252 C (Muromachi Kikai Co. Ltd, Tokyo, Japan) according to a previously published protocol[14],[52].
# gastrocnemius muscle = test: GIO model: muscle histomorphometry; type: in vivo, male SD rats; conditions: versus control
# Protocol: as §1
# Gastrocnemius muscles were carefully dissected and stored in chilled PBS for 48 h. Tissues were then transferred to 30% sucrose solution (in PBS) at 4 °C until they sank to the bottom. Tissues were embedded in OCT tissue freezing medium (Leica Bio systems, India) and cryo-sections (7 µm) were made using a Cryotome™ FSE Cryostat (Thermo Scientific). Tissue sections were collected on poly-L-lysine coated slides. For H&E staining, sections were rehydrated in PBS for 10 min and fixed in 10% formalin for 3 min. Then H&E staining was performed and mounted with DPX (Sigma). Quantitative analysis for determining cross-sectional area and Feret’s diameter of the muscle fibers were performed using Image J software[50],[56].
# femur diaphysis = test: GIO model: bone dynamic histomorphometry (double calcein labeling); type: in vivo, male SD rats; conditions: versus control (Veh)
# Protocol: as §1
# For dynamic histomorphometric measurements, double calcein labeling was performed with an interval of 10 days between two calcein injections. We measured the periosteal perimeter, single-labeled surface (sLS), double labeled surface (dLS), and interlabeled thickness (IrLTh).
# [7] = test system: serum PINP, CTX-I, sclerostin (SOST); test: GIO model: serum biochemical markers by ELISA; type: in vivo, male SD rats
# Protocol: as §1, §2
# [8] = in vivo, AUC, CSE-BuF at 250 mg/kg orally, rat plasma, Mean ± SD
# [9] = in vivo, CSE-BuF at 250 mg/kg orally, rat plasma, Mean ± SD
# [10] = 4 weeks, MP 5 mg/kg s.c. daily, CSE-BuF 50 mg/kg oral daily, mean ± SEM, n = 10/group
"AUC (in vivo; po, AUC) [ng·h/mL]",Cmax (in vivo; po) [ng/mL],plasma level after single oral dosing of CSE-Bu (in words) (in vivo),plasma level after single oral dosing of CSE-BuF (in words) (in vivo),SMILES,AUC (in vivo; [8]) [ng·h/mL],Cmax (in vivo; [9]) [ng/mL],in vivo bone conserving effect (bone),increase of relative bioavailability by CSE-BuF compared to CSE-Bu (in vivo; po) [%],%Fr (relative bioavailability) (in vivo; po) [%],further results
764 ± 382,201 ± 107,not detectable,detectable and measured in plasma,"O=c1cc(-c2ccc(O)c(O)c2)oc2cc(O)ccc12 [3′,4′,7-trihydroxyflavone (THF), 3′,4′,7-trihydroxyflavone]",,,,,,
259 ± 144,,could be measured in plasma,increases,O=c1cc(-c2ccc(O)c(O)c2)oc2cc(O)cc(O)c12 [Luteolin],,,in vivo bone conserving effect has been reported,36,136.94 ± 17.14,AUC (in vivo; po): 456.33 ± 131.28 ng·h/mL

# Continued, compound first:
SMILES,"AUC (in vivo; po, AUC) [ng·h/mL]",Cmax (in vivo; po) [ng/mL],plasma level after single oral dosing of CSE-Bu (in words) (in vivo),plasma level after single oral dosing of CSE-BuF (in words) (in vivo),AUC (in vivo; [8]) [ng·h/mL],Cmax (in vivo; [9]) [ng/mL],in vivo bone conserving effect (bone),increase of relative bioavailability by CSE-BuF compared to CSE-Bu (in vivo; po) [%],%Fr (relative bioavailability) (in vivo; po) [%],further results
"O=c1cc(-c2ccc(O)cc2)oc2cc(O)c([C@@H]3O[C@H](CO)[C@@H](O)[C@H](O)[C@H]3O)c(O)c12 [Apigenin 6-C-glucoside Or Isovitexin, Apigenin 6-C-glucoside]",,,not detectable,detectable and measured in plasma,17.9 ± 10.4,7.74 ± 4.29,,,,"osteogenic effect in vitro among compounds of CSE-Bu [1]: best osteogenic effect in vitro; in vivo osteogenic effect (bone; mice, ref unpublished data, S. Pal and N. Chattopadhyay): has in vivo osteogenic effect in mice"
O=c1cc(-c2ccc(O)cc2)oc2cc(O)cc(O)c12 [Apigenin],2.2 ± 1.15,3.98 ± 3.03,not detectable,detectable and measured in plasma,,,in vivo bone conserving effect has been reported,,,
Cc1cc(O)c2c(c1)C(=O)c1cc(O)cc(O)c1C2=O [Emodin],,,could be measured in plasma,increases,239 ± 31.1,29.2 ± 13,in vivo bone conserving effect has been reported,279,379.68 ± 87.63,"AUC (in vivo; in vivo, AUC, CSE-Bu at 250 mg/kg orally, rat plasma, Mean ± SD): 69.3 ± 33.2 ng·h/mL; Cmax (in vivo; in vivo, CSE-Bu at 250 mg/kg orally, rat plasma, Mean ± SD): 12.3 ± 3.8 ng/mL"
"C[C@H]1C[C@@H]2[C@H]([C@@H](O)C[C@@]3(C)[C@H]2CC[C@]3(O)C(=O)CO)[C@@]2(C)C=CC(=O)C=C12 [MP, Methylprednisolone]",,,,,,,,,,"Body weight [2, 10]: 239.86 ± 5.71 gm; Fat Mass [2, 10]: 6.12 ± 0.58 %; Lean Mass [2, 10]: 71.96 ± 2.43 %; decrease of fat mass compared to control ([2]; rat, in vivo): 40%; decrease of lean mass compared to control ([2]; rat, in vivo): 11%; atrogin and MuRF-1 protein levels in muscle [3]: increased; GILZ mRNA in thymus and bone [4]: robust increase; serum IL-1β [4]: suppressed; levels of miRNA 17, 20a and 29a in bones (miR-29a, miR-17, miR-20a): significant decreases; RANKL mRNA in bones [5]: robust increase; TRAP mRNA in bones [5]: robust increase; mRNA levels of osteocyte markers DMP-1 and MEPE in bones [5]: significant decrease; osteocalcin (OCN) mRNA level in bones [5]: significantly suppressed; strength parameters (peak load, energy to failure and stiffness) [6]: decreased all strength parameters; cross-sectional area and Feret's diameter of gastrocnemius muscle (gastrocnemius muscle): significantly reduced; mineralizing surface (pMS/BS), mineral apposition rate (pMAR) and bone formation rate (pBFR/BS) (femur diaphysis): significant decreases; serum sclerostin ([7]; rat, in vivo): significantly increased; serum CTX-I (bone resorption marker) ([7]; versus control (Veh)): increased; serum PINP (bone formation marker) ([7]; versus control (Veh)): suppressed"
